Data: the supplement of paper PMC4862054

These molecules were tested on HCC1937 (assay: normalised response (% of control), CellTiter-Glo; higher = more viable cells (100 = DMSO, 0 = benzethonium chloride kill control)). Conditions: incubation time: 72 h.
Method: (§1)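 DSRT, 72 h incubation, CellTox Green / CellTiter-Glo readout. Signal is normalised to DMSO and benzethonium chloride controls. Value is the normalised response at dose 3.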
For CN(C)C/C=C/C(=O)Nc1cc2c(Nc3ccc(F)c(Cl)c3)ncnc2cc1O[C@H]1CCOC1 [Afatinib] (10 nM), the normalised response was 97.6%. COc1cccc2cc(-c3nc([C@H]4CC[C@H](C(=O)O)CC4)n4ncnc(N)c34)[nH]c12 [OSI-027] (100 nM) gave a normalised response of 98.2%. N#CC[C@H](C1CCCC1)n1cc(-c2ncnc3[nH]ccc23)cn1 [Ruxolitinib] (100 nM) gave a normalised response of 102%.

The molecules below were run on MCF-10A in the same assay as above. Conditions: incubation time: 72 h.
Method: as §1
Work on O=C(c1ccc(C(=O)N2CCC(N3CCCC3)CC2)c(Nc2ccccc2)c1)N1CCC(N2CCCC2)CC1 [UNC1215] (300 nM) yielded a normalised response of 94.5%. CN1CC[C@H](c2c(O)cc(O)c3c(=O)cc(-c4ccccc4Cl)oc23)[C@H](O)C1 [Alvocidib] (100 nM) showed a normalised response of 100%. In the case of OC[C@H]1O[C@@H](n2cnc3c2N=CNC[C@H]3O)C[C@@H]1O [Pentostatin] (100 nM), the normalised response is reported as 102%. Nc1nc(Cl)nc2c1ncn2[C@H]1C[C@H](O)[C@@H](CO)O1 [Cladribine] (10 nM) gave a normalised response of 99.5%. With COc1cccc2c1C(=O)c1c(O)c3c(c(O)c1C2=O)C[C@@](O)(C(=O)CO)C[C@@H]3O[C@H]1C[C@H](N)[C@H](O)[C@H](C)O1 [Doxorubicin] (10 nM) the normalised response was 98.4%. Work on CC(=O)O[C@]1(C(C)=O)CC[C@H]2[C@@H]3C=C(C)C4=CC(=O)CC[C@]4(C)[C@H]3CC[C@@]21C [Megestrol acetate] (100 nM) yielded a normalised response of 104%. CN(C)C/C=C/C(=O)Nc1cc2c(Nc3ccc(F)c(Cl)c3)ncnc2cc1O[C@H]1CCOC1 [Afatinib] (10 nM) was tested, and the normalised response was 59.3%. In the case of COc1cccc2cc(-c3nc([C@H]4CC[C@H](C(=O)O)CC4)n4ncnc(N)c34)[nH]c12 [OSI-027] (100 nM), the normalised response is reported as 86.7%. Molecule N#CC[C@H](C1CCCC1)n1cc(-c2ncnc3[nH]ccc23)cn1 [Ruxolitinib] (100 nM) has a normalised response of 84.2%.

What follows are molecules tested on CAL-120 (assay: normalised response (% of control), CellTox Green; higher = less cell death (100 = DMSO, 0 = benzethonium chloride kill control)). Conditions: incubation time: 72 h.
Outline: (§2)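 Breast cancer cell lines (20 µl suspension) were seeded into 384-well plates holding compound at 5 concentrations in 10-fold steps over a compound-specific 10,000-fold range, then incubated 72 h. CellTox Green fluorescence (485/520 nm) was read first, then CellTiter-Glo luminescence after 10 min at room temperature. Each plate was normalised to 0.1 % DMSO (100) and a positive kill control (0). Each value is the normalised signal at a single concentration of the series.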
O=C(c1ccc(C(=O)N2CCC(N3CCCC3)CC2)c(Nc2ccccc2)c1)N1CCC(N2CCCC2)CC1 [UNC1215] (300 nM) was tested, and the normalised response was 101%. CN1CC[C@H](c2c(O)cc(O)c3c(=O)cc(-c4ccccc4Cl)oc23)[C@H](O)C1 [Alvocidib] (100 nM) was tested, and the normalised response was 97.2%. In the case of OC[C@H]1O[C@@H](n2cnc3c2N=CNC[C@H]3O)C[C@@H]1O [Pentostatin] (100 nM), the normalised response is reported as 103%. Molecule Nc1nc(Cl)nc2c1ncn2[C@H]1C[C@H](O)[C@@H](CO)O1 [Cladribine] (10 nM) has a normalised response of 102%. Work on COc1cccc2c1C(=O)c1c(O)c3c(c(O)c1C2=O)C[C@@](O)(C(=O)CO)C[C@@H]3O[C@H]1C[C@H](N)[C@H](O)[C@H](C)O1 [Doxorubicin] (10 nM) yielded a normalised response of 96.7%. CC(=O)O[C@]1(C(C)=O)CC[C@H]2[C@@H]3C=C(C)C4=CC(=O)CC[C@]4(C)[C@H]3CC[C@@]21C [Megestrol acetate] (100 nM) was tested, and the normalised response was 103%. CN(C)C/C=C/C(=O)Nc1cc2c(Nc3ccc(F)c(Cl)c3)ncnc2cc1O[C@H]1CCOC1 [Afatinib] (10 nM) gave a normalised response of 95.5%. COc1cccc2cc(-c3nc([C@H]4CC[C@H](C(=O)O)CC4)n4ncnc(N)c34)[nH]c12 [OSI-027] (100 nM) gave a normalised response of 97.6%. For N#CC[C@H](C1CCCC1)n1cc(-c2ncnc3[nH]ccc23)cn1 [Ruxolitinib] (100 nM), the normalised response was 103%.

The molecules below were run on MDA-MB-231 in the same assay as above. Conditions: incubation time: 72 h.
Outline: as §2
O=C(c1ccc(C(=O)N2CCC(N3CCCC3)CC2)c(Nc2ccccc2)c1)N1CCC(N2CCCC2)CC1 [UNC1215] (300 nM) showed a normalised response of 90.9%. CN1CC[C@H](c2c(O)cc(O)c3c(=O)cc(-c4ccccc4Cl)oc23)[C@H](O)C1 [Alvocidib] (100 nM) gave a normalised response of 69%. Work on OC[C@H]1O[C@@H](n2cnc3c2N=CNC[C@H]3O)C[C@@H]1O [Pentostatin] (100 nM) yielded a normalised response of 123%. Nc1nc(Cl)nc2c1ncn2[C@H]1C[C@H](O)[C@@H](CO)O1 [Cladribine] (10 nM) gave a normalised response of 109%. With CC(=O)O[C@]1(C(C)=O)CC[C@H]2[C@@H]3C=C(C)C4=CC(=O)CC[C@]4(C)[C@H]3CC[C@@]21C [Megestrol acetate] (100 nM) the normalised response was 116%. CN(C)C/C=C/C(=O)Nc1cc2c(Nc3ccc(F)c(Cl)c3)ncnc2cc1O[C@H]1CCOC1 [Afatinib] (10 nM) showed a normalised response of 96.5%. Molecule COc1cccc2cc(-c3nc([C@H]4CC[C@H](C(=O)O)CC4)n4ncnc(N)c34)[nH]c12 [OSI-027] (100 nM) has a normalised response of 76.7%.

These molecules were tested on HCC1599 in the same assay as above. Conditions: incubation time: 72 h.
Outline: as §2
For O=C(c1ccc(C(=O)N2CCC(N3CCCC3)CC2)c(Nc2ccccc2)c1)N1CCC(N2CCCC2)CC1 [UNC1215] (300 nM), the normalised response was 93.7%. Work on CN1CC[C@H](c2c(O)cc(O)c3c(=O)cc(-c4ccccc4Cl)oc23)[C@H](O)C1 [Alvocidib] (100 nM) yielded a normalised response of 108%. With OC[C@H]1O[C@@H](n2cnc3c2N=CNC[C@H]3O)C[C@@H]1O [Pentostatin] (100 nM) the normalised response was 100%. For Nc1nc(Cl)nc2c1ncn2[C@H]1C[C@H](O)[C@@H](CO)O1 [Cladribine] (10 nM), the normalised response was 95%. COc1cccc2c1C(=O)c1c(O)c3c(c(O)c1C2=O)C[C@@](O)(C(=O)CO)C[C@@H]3O[C@H]1C[C@H](N)[C@H](O)[C@H](C)O1 [Doxorubicin] (10 nM) was tested, and the normalised response was 118%. With CC(=O)O[C@]1(C(C)=O)CC[C@H]2[C@@H]3C=C(C)C4=CC(=O)CC[C@]4(C)[C@H]3CC[C@@]21C [Megestrol acetate] (100 nM) the normalised response was 83.5%. CN(C)C/C=C/C(=O)Nc1cc2c(Nc3ccc(F)c(Cl)c3)ncnc2cc1O[C@H]1CCOC1 [Afatinib] (10 nM) showed a normalised response of 109%. COc1cccc2cc(-c3nc([C@H]4CC[C@H](C(=O)O)CC4)n4ncnc(N)c34)[nH]c12 [OSI-027] (100 nM) gave a normalised response of 102%. N#CC[C@H](C1CCCC1)n1cc(-c2ncnc3[nH]ccc23)cn1 [Ruxolitinib] (100 nM) was tested, and the normalised response was 95%.

These molecules were tested on CAL-148 in the same assay as above. Conditions: incubation time: 72 h.
Outline: as §2
With O=C(c1ccc(C(=O)N2CCC(N3CCCC3)CC2)c(Nc2ccccc2)c1)N1CCC(N2CCCC2)CC1 [UNC1215] (300 nM) the normalised response was 104%. For CN1CC[C@H](c2c(O)cc(O)c3c(=O)cc(-c4ccccc4Cl)oc23)[C@H](O)C1 [Alvocidib] (100 nM), the normalised response was 103%. Work on OC[C@H]1O[C@@H](n2cnc3c2N=CNC[C@H]3O)C[C@@H]1O [Pentostatin] (100 nM) yielded a normalised response of 55.8%.
